Laboratory results: patent US20250368648A1, “MULTI-CYCLIC IRAK AND FLT3 INHIBITING COMPOUNDS AND USES THEREOF” (CHILDREN'S HOSPITAL MEDICAL CENTER, priority 2022, published 2025)

Columns and labels:
THP1 cells = experiment: Combination drug screening, Cell Titer Glo, THP1 cells; details: THP1 cells; for Excess HSA Score: sum score, 10 × 10 dataset, 48 hours;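 as to all read-outs here: luminescence read out in 1536-well plates seeded with 500 THP1 cells per well, each drug spanning a 10-point concentration range in the combination matrix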
From the text: A smaller concentration indicates higher potency to synergize with Venetoclax. […] The numbers in each cell represent the % response (left) or the Delta Bliss score (right) at each given concentration combination.
A smaller concentration indicates higher potency to synergize with azacitidine. […] The numbers in each cell represent the % response (left) or the Delta Bliss score (right) at each given concentration combination.
This is a cell line that has the FLT3 ITD mutation but also the FLT3 D835Y kinase domain mutation. […] Excess HSA is a measure of synergy vs. additivity or antagonism, wherein a negative Excess HSA value is indicative of synergy.
Briefly, 10 nL of compounds were acoustically dispensed into 1536-well white polystyrene tissue culture-treated plates with an Echo 550 acoustic liquid handler (Labcyte). MOLM14 (D835Y) or THP1 cells were then added to compound-containing plates at a density of 500-cells/well in 5 μL of medium. A 10-point custom concentration range was used for all listed drugs. […] 48h post compound addition, 3 μL of Cell Titer Glo (Promega) were added to each well and plates were incubated at room temperature for 15 minutes with the stainless-steel lid in place. Luminescence readings were taken using a Viewlux imager (PerkinElmer) with a 2 second exposure time per plate.

MOLM14 (D835Y) cells = experiment: Combination drug screening, Cell Titer Glo, MOLM14 (D835Y) cells; details: MOLM14(D835Y) cells; for Excess HSA Score: sum score, listed as compound in combination with Compound 106, 48 hours;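 as to all read-outs here: MOLM14 cells with FLT3 ITD plus D835Y, 500 per well in 1536-well plates, 10-point dose ranges, luminescent viability after 48 h, negative Excess HSA indicates synergy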
[1] = listed as compound in combination with CG-806 (a FLT3/BTK inhibitor)
[2] = listed as compound in combination with Compound 45a
[3] = listed as compound in combination with Compound 46a
[4] = listed as compound in combination with Compound 47a
[5] = listed as compound in combination with Compound 48a
[6] = listed as compound in combination with Compound 102
[7] = listed as compound in combination with Compound 106
[8] = listed as compound in combination with Gilteritinib (a FLT3/AXL inhibitor)
[9] = listed as compound in combination with PF-06650833 (an IRAK4 selective inhibitor)
[10] = listed as compound in combination with Quizartinib (a FLT3/Kit/PDGFRa inhibitor)
[11] = listed as compound in combination with emavusertib (CA-4948) (a FLT3/IRAK4 inhibitor)
[12] = combination therapy of CG-806 (a FLT3/BTK inhibitor) and the named additional compound, 110 × 10 dataset
[13] = combination therapy of Compound 45a and the named additional compound, 110 × 10 dataset
[14] = combination therapy of Compound 46a and the named additional compound, 110 × 10 dataset
[15] = combination therapy of Compound 47a and the named additional compound, 110 × 10 dataset
[16] = combination therapy of Compound 48a and the named additional compound, 110 × 10 dataset
[17] = combination therapy of Compound 102 and the named additional compound, 10 × 10 dataset
[18] = combination therapy of Gilteritinib (a FLT3/AXL inhibitor) and the named additional compound, 110 × 10 dataset
[19] = combination therapy of PF-06650833 (an IRAK4 selective inhibitor) and the named additional compound, 110 × 10 dataset
[20] = combination therapy of Quizartinib (a FLT3/Kit/PDGFRa inhibitor) and the named additional compound, 110 × 10 dataset
[21] = combination therapy of emavusertib (CA-4948) (a FLT3/IRAK4 inhibitor) and the named additional compound, 110 × 10 dataset

Row | Compound | Excess HSA Score (THP1 cells; [1]) | Excess HSA Score (THP1 cells; [2]) | Excess HSA Score (THP1 cells; [3]) | Excess HSA Score (THP1 cells; [4]) | Excess HSA Score (THP1 cells; [5]) | Excess HSA Score (THP1 cells; [6]) | Excess HSA Score (THP1 cells; [7]) | Excess HSA Score (THP1 cells; [8]) | Excess HSA Score (THP1 cells; [9]) | Excess HSA Score (THP1 cells; [10]) | Excess HSA Score (THP1 cells; [11]) | Sum Excess HSA Score (MOLM14 (D835Y) cells; [12]) | Sum Excess HSA Score (MOLM14 (D835Y) cells; [13]) | Sum Excess HSA Score (MOLM14 (D835Y) cells; [14]) | Sum Excess HSA Score (MOLM14 (D835Y) cells; [15]) | Sum Excess HSA Score (MOLM14 (D835Y) cells; [16]) | Sum Excess HSA Score (MOLM14 (D835Y) cells; [17]) | Sum Excess HSA Score (MOLM14 (D835Y) cells; [18]) | Sum Excess HSA Score (MOLM14 (D835Y) cells; [19]) | Sum Excess HSA Score (MOLM14 (D835Y) cells; [20]) | also measured
1 | CC(C)Nc1cc(-c2c[nH]c(C(=O)N[C@H](CO)c3cccc(Cl)c3)c2)c(Cl)cn1 [Ulixertinib, ulixertinib] | 518 | −14.94 | 260.4 | −663.3 | −24.53 | −301.9 | −630.1436 | 690.556 | 552.8 | −530.2 | −230.3 | 258.3 | 554.5 | −208.5 | 112.6 | −576.8 | −768.5 | 29.29 | 548.6 | 1180 | Sum Excess HSA Score (MOLM14 (D835Y) cells; [21]): −352.8; Excess HSA Score (MOLM14 (D835Y) cells; 10 × 10 dataset): −71.53
2 | CC1(C)CCC(CN2CCN(c3ccc(C(=O)NS(=O)(=O)c4ccc(NCC5CCOCC5)c([N+](=O)[O-])c4)c(Oc4cnc5[nH]ccc5c4)c3)CC2)=C(c2ccc(Cl)cc2)C1 [Venetoclax (ABT-199), Venetoclax] | −1431.1287 | −1070 | −1405 | −1419 | −628.4379 | −1775 | −1478 | −1448 | −429.3 | −216 | −526.5 | −751 | −1552 | −1667 | −1849 | −1280.6361 | −966.5606 | −1406 | −1578 | −1656 | Comments (THP1 cells; combination with CG-806): Synergistic (a negative Excess HSA value is indicative of synergy); Comments (THP1 cells; combination with Compound 45a): Synergistic (a negative Excess HSA value is indicative of synergy); Comments (THP1 cells; combination with Compound 46a): Synergistic (a negative Excess HSA value is indicative of synergy); Comments (THP1 cells; combination with Compound 47a): Synergistic (a negative Excess HSA value is indicative of synergy); Comments (THP1 cells; combination with Compound 102): Synergistic (a negative Excess HSA value is indicative of synergy); Comments (THP1 cells; combination with Compound 106): Synergistic (a negative Excess HSA value is indicative of synergy); Comments (THP1 cells; combination with Gilteritinib): Synergistic (a negative Excess HSA value is indicative of synergy); Comments (synergistic / antagonistic) (MOLM14 (D835Y) cells; [13]): Synergistic (a negative Excess HSA value is indicative of synergy); Comments (synergistic / antagonistic) (MOLM14 (D835Y) cells; [14]): Synergistic (a negative Excess HSA value is indicative of synergy); Comments (synergistic / antagonistic) (MOLM14 (D835Y) cells; [15]): Synergistic (a negative Excess HSA value is indicative of synergy); Comments (synergistic / antagonistic) (MOLM14 (D835Y) cells; [16]): Synergistic (a negative Excess HSA value is indicative of synergy); Comments (synergistic / antagonistic) (MOLM14 (D835Y) cells; [17]): Synergistic (a negative Excess HSA value is indicative of synergy); Comments (synergistic / antagonistic) (MOLM14 (D835Y) cells; [18]): Synergistic (a negative Excess HSA value is indicative of synergy); Comments (synergistic / antagonistic) (MOLM14 (D835Y) cells; [19]): Synergistic (a negative Excess HSA value is indicative of synergy); Comments (synergistic / antagonistic) (MOLM14 (D835Y) cells; [20]): Synergistic (a negative Excess HSA value is indicative of synergy); Comments (synergistic / antagonistic) (MOLM14 (D835Y) cells; [21]): Synergistic (a negative Excess HSA value is indicative of synergy); Sum Excess HSA Score (MOLM14 (D835Y) cells; [21]): −1038; Comments (MOLM14 (D835Y) cells; combination with Compound 106): Synergistic (a negative Excess HSA value is indicative of synergy); Excess HSA Score (MOLM14 (D835Y) cells; 10 × 10 dataset): −1540
3 | Nc1cccc2c1CN(C1CCC(=O)NC1=O)C2=O (stereo not shown) [Lenalidomide] | 534 | −245.1 | 533.2 | 188.9 | −51.13 | 12.2 | 386.8 | 355 | 74.4868 | 472.5204 | 1167 | 141.5 | 784.7 | 12.1 | 868.6 | 405.4 | 59.07 | 527.6728 | −429.8 | 565.7343 | Sum Excess HSA Score (MOLM14 (D835Y) cells; [21]): 390.3; Excess HSA Score (MOLM14 (D835Y) cells; 10 × 10 dataset): 754.6
4 | N#Cc1ccnc(N2C(=O)CC[C@H]2C(=O)N(c2cncc(F)c2)[C@H](C(=O)NC2CC(F)(F)C2)c2ccccc2Cl)c1 [Ivosidenib, ivosidenib] | 93.96 | −296.7 | −42.9834 | −122.1 | −0.4511 | −215.7606 | 354.6 | 338 | −152.4 | 177.8 | 285 | −199.6 | 259.8 | −118.7 | 218.5 | −299.6 | −713.3 | 347.6 | −172.4 | 244.1367 | Sum Excess HSA Score (MOLM14 (D835Y) cells; [21]): 35.12; Excess HSA Score (MOLM14 (D835Y) cells; 10 × 10 dataset): 28.0568
5 | CCN(C(=O)c1cc(F)ccc1Oc1cncnc1N1CC2(CCN(C[C@H]3CC[C@H](NS(=O)(=O)CC)CC3)CC2)C1)C(C)C [SNDX-5613] | 321.1921 | 434.8 | 262.8 | 247.1 | 138.2 | 156.4 | 375.4 | 306.1 | −120 | 413.2 | 468.5 | −1.886 | −24.88 | −263.9 | −358.8 | −804.1 | −748.9985 | 47.75 | −301.3 | −724.1 | Sum Excess HSA Score (MOLM14 (D835Y) cells; [21]): −321; Excess HSA Score (MOLM14 (D835Y) cells; 10 × 10 dataset): −210.8
